For 1 molecule, inhibition results are on record in paper PMC7241567 (Journal of Enzyme Inhibition and Medicinal Chemistry, 2020).

This assay deals with T1, GSK3b (Homo sapiens, UniProt P49841).
T1 construct: purchased Reaction Biology Corp. (Kinase HotSpot service)
Put plainly: Reaction Biology Kinase HotSpot radiometric kinase assay. The assay is classed as biochemical.

As a reminder, the inhibition is the relative decrease from the control value, in per cent.

T1 sequence (P49841 whole entry): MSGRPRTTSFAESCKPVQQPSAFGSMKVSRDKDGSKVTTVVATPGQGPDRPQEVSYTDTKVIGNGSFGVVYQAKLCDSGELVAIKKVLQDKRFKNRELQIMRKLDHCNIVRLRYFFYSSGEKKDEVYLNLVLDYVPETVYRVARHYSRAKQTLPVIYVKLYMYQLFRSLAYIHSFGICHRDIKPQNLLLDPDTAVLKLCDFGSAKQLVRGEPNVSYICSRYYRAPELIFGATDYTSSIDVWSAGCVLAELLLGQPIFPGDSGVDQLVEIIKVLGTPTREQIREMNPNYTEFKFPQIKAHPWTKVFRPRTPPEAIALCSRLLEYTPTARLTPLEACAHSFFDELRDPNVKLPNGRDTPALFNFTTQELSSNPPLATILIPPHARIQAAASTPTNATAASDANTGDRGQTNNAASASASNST

Regarding `Cc1oncc1C(=O)Nc1ccc2cnc(-c3cc(N4CCN(C)CC4)cc(C(F)(F)F)c3)nc2c1` [Compound 7d, 5-methyl-N-(2-(3-(4-methylpiperazin-1-yl)-5-(trifluoromethyl)phenyl)quinazolin-7-yl)isoxazole-4-carboxamide], 10 µM produced 8.06% inhibition.
